Measured values taken from US12331121B2, “Efflux pump-cancer antigen multi-specific antibodies and compositions, reagents, kits and methods related thereto” (William Robert Arathoon Living Trust Dated August 29, 2016, priority 2019, dated 2025).

Legend:
A2780ADR cells = experiment: A2780ADR subcutaneous tumors in mice; type: in vivo
Method: A2780ADR MDR cancer cell line and HeyT30 MDR cancer cell line were injected into mice according to protocols described in Example 3. Mice were treated with BisP1.1 bispecific antibody with or without paclitaxel.
Cells: A2780ADR cell line (Sigma, catalogue no 93112520) is an epithelial ovarian carcinoma, derived from parent A2780 cell line (Sigma, catalogue no 93112519), was used in this study.
Mice: 5-6-weeks-old female nude mice (Charles River) were used in this study.
(§1) All animal maintenance, handling, surveillance, and animal procedures were performed in accordance with and approval from the APLAC protocol.
(§2) A2780ADR subcutaneous tumors: Mice were randomized into six groups of five mice each—(i) Control isotype IgG1 3 mg/kg, (ii) Control isotype IgG1 3 mg/kg and 20 mg/kg of paclitaxel, (iii) KNJYBisP1.1 3 mg/kg, (iv) KNJYBisP1.1 3 mg/kg and 20 mg/kg of paclitaxel, (v) KNJYBisP1.1 N297A 3 mg/kg and (vi) KNJYBisP1.1 N297A 3 mg/kg and 20 mg/kg of paclitaxel. Antibody and paclitaxel were dosed intraperitoneally twice a week for two consecutive weeks.
A2780ADR subcutaneous tumors: Once tumors reached 100-150 mm^3, mice were randomized into ten groups of five mice each—(i) Control isotype IgG1 3 mg/kg, (ii) Control isotype IgG1 3 mg/kg and 20 mg/kg of paclitaxel, (iii) KNJYBisP1.1 3 mg/kg, (iv) KNJYBisP1.1 3 mg/kg and 20 mg/kg of paclitaxel, (v) 15D3 hybridoma monoclonal Ab 3 mg/kg, (vi) 15D3 hybridoma 3 mg/kg and 20 mg/kg of paclitaxel, (vii) KT14/KT14 monoclonal Ab 3 mg/kg, (viii) KT14/KT14 monoclonal Ab 3 mg/kg and 20 mg/kg of paclitaxel, (ix) 15D3 hybridoma+KT14/KT14, 1.5 mg each and (x) 15D3 hybridoma+KT14/KT14, 1.5 mg each and 20 mg/kg of paclitaxel. Antibodies and paclitaxel were dosed intraperitoneally twice a week for two consecutive weeks.

[1] = tested on: multidrug resistant N6ADR cells; experiment: N6ADR tumors in mice (Example 5); type: in vivo
Method: Tumors formed by injecting multidrug resistant N6ADR cells in mice were treated by administering the anti-MDR1 antibody 15D3, with or without paclitaxel or administering KbisP1.1 with or without paclitaxel.

[2] = tested on: CTG-2616 patient-derived breast tumors; experiment: CTG-2616 patient-derived breast cancer model; type: in vivo, mice; conditions: antibody 6 mg/kg and paclitaxel 5 mg/kg
Source text: Cells: CTG-2616 is a ER^+/Her2^+ primary breast cancer, derived from a patient presenting with recurrent ductal adenocarcinoma of the breast.
Mice: 5-6-weeks-old athymic Nude-Foxn1nu female nude mice (Envigo) were used in this study.
Inoculation—Snap-Frozen pieces of patient-derived tumors were thawed, cut into 5×5×5 mm and were subcutaneously injected into anesthetized 5-6-week-old female nude mice under sterile conditions. For tumor implantation procedure, a 1-1.5 cm incision was made on the implantation site and forceps were used to implant the tumor fragment. When sufficient stock animals reached 1000-1500 mm^3, tumors were harvested for re-implantation into pre-study animals. Pre-study animals were implanted unilaterally on the left flank with tumor fragments harvested from stock animals. Each animal was implanted from a specific passage lot and documented. Pre-study tumor volumes were recorded for each experiment beginning seven to ten days after implantation. When tumors reached an average tumor volume of 150-300 mm^3, animals were matched by tumor volume into treatment or control groups to be used for dosing and dosing initiated on Day 0. All surgical procedures were conducted under sterile conditions. […]

MES-SA/Dx5 cells = experiment: MES-SA/Dx5 subcutaneous tumors in nude mice; type: in vivo
Method: Cells: MES-SA/Dx5 cell line (Sigma, catalogue no 95051031) is a uterine sarcoma, derived from parent MES-SA cell line (Sigma, catalogue no 95051030), was used in this study.
Mice: 5-6-week-old female nude mice (Charles River) were used in this study.
as §1
as §2, with “MES-SA/Dx5” for “A2780ADR”, “Once tumors reached 100-150 mm^3, mice” for “Mice”, “LALAPG” for “N297A”, “weeks. […]” for “weeks.”

cynomolgus RBCs = experiment: Binding to cynomolgus erythrocytes; conditions: FIG. 22B; in contrast to anti-CD47 5F9
[3] = antibody 3 mg/kg, paclitaxel 20 mg/kg

## KBisP1.1: bispecific anti-MDR1/anti-CD47 antibody: 15D3 heavy chain, 5F9 (KT14) heavy chain, common MRK16 light chain, human IgG1
A2780ADR cells; 3 mg/kg with paclitaxel 20 mg/kg, FIG. 28
  chemosensitizing effect compared with monospecific antibodies: stronger compared to either the anti-MDR1 15D3 hybridoma antibody or anti-CD47 KT14 monoclonal antibody
A2780ADR cells; Example 4, with or without paclitaxel, FIG. 18
  tumor volume: efficacious in reducing A2780ADR MDR cancer cell tumor volume with or without paclitaxel
A2780ADR cells; [3]
  chemosensitization of A2780ADR tumors to paclitaxel: chemosensitizes
[1]; FIG. 21
  chemo-sensitization of N6ADR tumor to paclitaxel: dose-dependent
[1]; with or without paclitaxel, FIG. 20
  efficacy against N6ADR cell tumors: more efficacious than the 15D3 antibody
[2]
  tumor growth with paclitaxel: tumor growth inhibition
MES-SA/Dx5 cells; 3 mg/kg with paclitaxel 20 mg/kg, FIG. 29
  chemosensitizing effect compared with monospecific antibodies: stronger than either the 15D3 hybridoma or KT14 monoclonal antibodies
MES-SA/Dx5 cells; [3]
  chemosensitization of MES-SA/Dx5 tumors to paclitaxel: chemosensitizes
Cynomolgus RBCs
  binding to cynomolgus erythrocytes: no significant binding
